Key:
Type in all cases: functional
[1] = system: SF-268; assay: Growth inhibition of human SF268 cells after 48 hrs by SRB protein assay; conditions: SF-268, 48 h; for TGI: read-out: Log TGI (converted)
[2] = Growth inhibition of human MDA-MB-231/ATCC cells after 48 hrs by SRB protein assay; conditions: MDA-MB-231, 48 h; for TGI: read-out: Log TGI (converted)
[3] = system: NCI-H23; assay: Growth inhibition of human NCI-H23 cells after 48 hrs by SRB protein assay; conditions: NCI-H23, 48 h
[4] = system: SF-539; assay: Growth inhibition of human SF539 cells after 48 hrs by SRB protein assay; conditions: SF-539, 48 h; for TGI: read-out: Log TGI (converted)
[5] = system: OVCAR-8; assay: Growth inhibition of human OVCAR8 cells after 48 hrs by SRB protein assay; conditions: OVCAR-8, 48 h; for TGI: read-out: Log TGI (converted)
[6] = system: CAKI-1; assay: Growth inhibition of human CAKI1 cells after 48 hrs by SRB protein assay; conditions: CAKI-1, 48 h; for TGI: read-out: Log TGI (converted)
[7] = system: HCC 2998; assay: Growth inhibition of human HCC2998 cells after 48 hrs by SRB protein assay; conditions: HCC 2998, 48 h; for TGI: read-out: Log TGI (converted)
[8] = system: RPMI-8226; assay: Growth inhibition of human RPMI8226 cells after 48 hrs by SRB protein assay; conditions: RPMI-8226, 48 h; for TGI: read-out: Log TGI (converted)
[9] = system: T47D; assay: Growth inhibition of human T47D cells after 48 hrs by SRB protein assay; conditions: for TGI: read-out: Log TGI (converted)
[10] = system: EKVX; assay: Growth inhibition of human EKVX cells after 48 hrs by SRB protein assay; conditions: for TGI: read-out: Log TGI (converted)
[11] = system: OVCAR-3; assay: Growth inhibition of human OVCAR-3 cells after 48 hrs by SRB protein assay; conditions: OVCAR-3, 48 h; for TGI: read-out: Log TGI (converted)
[12] = system: HL-60; assay: Growth inhibition of human HL60 cells after 48 hrs by SRB protein assay; conditions: HL-60, 48 h; for TGI: read-out: Log TGI (converted)
[13] = system: NCI-H226; assay: Growth inhibition of human NCI-H226 cells after 48 hrs by SRB protein assay; conditions: NCI-H226, 48 h; for TGI: read-out: Log TGI (converted)
[14] = system: MCF7; assay: Anticancer activity against human MCF7 cells assessed as growth of cells at 100 uM relative to untreated cells
[15] = system: SF-295; assay: Growth inhibition of human SF295 cells after 48 hrs by SRB protein assay; conditions: SF-295, 48 h; for TGI: read-out: Log TGI (converted)
[16] = system: SR; assay: Growth inhibition of human SR cells after 48 hrs by SRB protein assay; conditions: for TGI: read-out: Log TGI (converted)
[17] = system: SN12C; assay: Growth inhibition of human SN12C cells after 48 hrs by SRB protein assay; conditions: for TGI: read-out: Log TGI (converted)
[18] = system: A498; assay: Growth inhibition of human A498 cells after 48 hrs by SRB protein assay; conditions: A498, 48 h; for TGI: read-out: Log TGI (converted)
[19] = system: DU-145; assay: Growth inhibition of human DU145 cells after 48 hrs by SRB protein assay; conditions: DU-145, 48 h; for TGI: read-out: Log TGI (converted)
[20] = system: SNB-19; assay: Growth inhibition of human SNB19 cells after 48 hrs by SRB protein assay; conditions: SNB-19, 48 h; for TGI: read-out: Log TGI (converted)
[21] = system: SNB-75; assay: Growth inhibition of human SNB75 cells after 48 hrs by SRB protein assay; conditions: SNB-75, 48 h; for TGI: read-out: Log TGI (converted)
[22] = system: Hs-578T; assay: Growth inhibition of human HS578T cells after 48 hrs by SRB protein assay; conditions: for TGI: read-out: Log TGI (converted)

O=c1/c(=C/c2ccc(Cl)cc2)sc2ncnn12
GI50 [1]: 16.2 µM
TGI [1]: 58.9 µM
GI50 [2]: 19.1 µM
TGI [2]: 43.7 µM
GI50 [3]: 17.8 µM
TGI ([3]; read-out: Log TGI (converted)): 38 µM
GI50 [4]: 10.2 µM
TGI [4]: 21.9 µM
GI50 [5]: 12.6 µM
TGI [5]: 36.3 µM
GI50 [6]: 19.5 µM
TGI [6]: 38.9 µM
GI50 [7]: 18.2 µM
TGI [7]: 32.4 µM
GI50 [8]: 2.95 µM
TGI [8]: 17.4 µM
GI50 [9]: 21.4 µM
TGI [9]: > 100 µM
GI50 [10]: 14.5 µM
TGI [10]: 33.9 µM
GI50 [11]: 13.2 µM
TGI [11]: 30.2 µM
GI50 [12]: 0.537 µM
TGI [12]: 2.04 µM
GI50 [13]: 20 µM
TGI [13]: 55 µM
Activity [14]: 10%
GI50 [15]: 17.8 µM
TGI [15]: 35.5 µM
GI50 [16]: 8.32 µM
TGI [16]: 33.9 µM
GI50 [17]: 15.5 µM
TGI [17]: 49 µM
GI50 [18]: 19.1 µM
TGI [18]: 33.1 µM
GI50 [19]: 12.9 µM
TGI [19]: 32.4 µM
GI50 [20]: 16.2 µM
TGI [20]: 32.4 µM
GI50 [21]: 14.1 µM
TGI [21]: 32.4 µM
GI50 [22]: 14.1 µM
TGI [22]: 37.2 µM

O=c1/c(=C/c2ccc(F)cc2)sc2ncnn12
GI50 [1]: 33.9 µM
TGI [1]: > 100 µM
GI50 [2]: > 100 µM
TGI [2]: > 100 µM
GI50 [4]: 30.2 µM
TGI [4]: 93.3 µM
GI50 [5]: 44.7 µM
TGI [5]: > 100 µM
GI50 [6]: 69.2 µM
TGI [6]: > 100 µM
GI50 [7]: 63.1 µM
TGI [7]: > 100 µM
GI50 [8]: 26.3 µM
TGI [8]: 79.4 µM
GI50 [9]: 91.2 µM
TGI [9]: > 100 µM
GI50 [10]: 83.2 µM
TGI [10]: > 100 µM
GI50 [11]: 37.2 µM
TGI [11]: > 100 µM
GI50 [12]: 6.46 µM
TGI [12]: > 100 µM
GI50 [13]: > 100 µM
TGI [13]: > 100 µM
Activity [14]: 77%
GI50 [15]: 52.5 µM
TGI [15]: > 100 µM
GI50 [16]: 15.5 µM
TGI [16]: > 100 µM
GI50 [17]: 40.7 µM
TGI [17]: > 100 µM
GI50 [18]: 61.7 µM
TGI [18]: > 100 µM
GI50 [19]: 39.8 µM
TGI [19]: > 100 µM
GI50 [20]: 63.1 µM
TGI [20]: > 100 µM
GI50 [21]: 58.9 µM
TGI [21]: > 100 µM
GI50 [22]: 69.2 µM
TGI [22]: > 100 µM
